Results taken from patent US6750202B1, “Phosphinate peptide analogs for the treatment of fibrotic disorders” (priority 1998, dated 2004).
*1 amine or outer side, *2 acyl side, *3 side chain or, on linkers, in order; H or OH if unused. Where a SMILES comes first, the peptide text is derived from it. [ ]: non-standard residue; d: D form. The star is where a group is joined. X1 = C[C@H](CP(=O)(O)[C@H](Cc1ccccc1)N[*:1])C(=O)[*:2]; Cbz = O=C(OCc1ccccc1)*

What was measured:
[1] = biological target: recombinant PCP (procollagen C-proteinase) (Homo sapiens, UniProt P13497); conditions: 100 nM inhibitor; FIG. 1
recombinant PCP (procollagen C-proteinase), sequence (P13497 121-986, species assumed): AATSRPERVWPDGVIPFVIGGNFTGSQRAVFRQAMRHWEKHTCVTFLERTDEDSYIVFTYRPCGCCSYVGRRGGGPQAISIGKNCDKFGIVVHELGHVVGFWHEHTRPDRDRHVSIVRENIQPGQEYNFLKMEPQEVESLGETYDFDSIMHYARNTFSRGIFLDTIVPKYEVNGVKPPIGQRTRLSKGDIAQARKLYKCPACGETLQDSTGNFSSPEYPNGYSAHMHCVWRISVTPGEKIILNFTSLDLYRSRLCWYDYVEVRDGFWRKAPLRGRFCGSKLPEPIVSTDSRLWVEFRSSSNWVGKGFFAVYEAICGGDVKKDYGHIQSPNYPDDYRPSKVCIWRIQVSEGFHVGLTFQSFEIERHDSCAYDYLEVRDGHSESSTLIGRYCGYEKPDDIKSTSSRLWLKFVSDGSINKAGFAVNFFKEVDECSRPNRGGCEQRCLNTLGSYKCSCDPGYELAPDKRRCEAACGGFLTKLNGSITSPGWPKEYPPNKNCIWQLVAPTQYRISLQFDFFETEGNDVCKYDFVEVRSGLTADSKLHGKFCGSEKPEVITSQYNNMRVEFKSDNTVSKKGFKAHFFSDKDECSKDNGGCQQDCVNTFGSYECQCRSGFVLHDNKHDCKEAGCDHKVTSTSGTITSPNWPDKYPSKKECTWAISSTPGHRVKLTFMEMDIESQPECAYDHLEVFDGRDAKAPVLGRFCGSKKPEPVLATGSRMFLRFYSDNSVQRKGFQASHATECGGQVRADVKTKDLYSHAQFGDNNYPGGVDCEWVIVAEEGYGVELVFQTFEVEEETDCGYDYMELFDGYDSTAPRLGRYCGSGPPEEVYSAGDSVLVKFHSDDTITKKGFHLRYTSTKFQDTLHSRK

human meprin = conditions: concentrations of up to 100 nM; FIG. 3
Method: The meprin activity test was carried out in a completely analogous manner to the in-vitro assay for measuring PCP activity. Instead of the recombinant PCP, use was made of human meprin, which also transforms the fluorescence-labeled decapeptide.

Which “inhibition of PCP enzyme activity (transformation of the DABCYL-EDANS-decapeptide substrate as a function of time)” value [1] does the source give for `COC(=O)[C@H](CC(C)C)NC(=O)[C@@H]1CCCN1C(=O)[C@H](C)CP(=O)(O)[C@H](Cc1ccccc1)NC(=O)[C@H](CCCCN)NC(=O)[C@@H]1CCCN1C(=O)OCc1ccccc1` [Z-PKF(PC)APL-O-Me] (Cbz-PK[X1]PL-OMe) here?
Its value is “almost completely inhibited”.

And the “inhibition of meprin in its transformation of the fluorescence-labeled peptide” value (human meprin)?
The value was “only slightly inhibited”.
